Measurements from US9879036B2, “Mitochondrial aldehyde dehydrogenase-2 binding compounds and methods of use thereof” (Aviv Therapeutics, Inc., priority 2014, dated 2018).
“Also recorded” adds a separate entry of the source.

Test system: FANCA deficiency lymphocyte cell line (FANCA B-lymphocyte, GM13022)
Experiment: Proliferation of FANCA deficient lymphocytes under 4 HNE challenge (alamarBlue)
Assay type: cell-based
Procedure: FANCA deficiency lymphocyte cell line (Fanconi Anemia, Complementation Group A, FANCA B-lymphocyte, GM13022) was purchased from Coriell Cell Repositories (403 Haddon Ave, Camden, N.J. 08103).
Standard cell culture conditions were used in this experiment. The culture medium (CM) consisted of culture medium RPMI1640, 15% heat-inactivated FBS, 2 mM L-glutamine, 1% Pen/Strep. Cells were suspended in 10-20 ml CM in T25 tissue culture flask in an upright position and incubated in a 37° C., 5% CO2 incubator. Cells were counted daily and diluted with fresh CM to 3×10^5 cells/ml. Cells thawed and maintained in culture for 3-12 days were used in these studies.
Cell densities of FANCA lymphocytes were determined and cells were diluted in RPMI1640 medium containing 15% FBS, 2 mM L-glutamine, 1% Pen/Strep to desired cell density. 4000 cells in 50-75 μl were plated onto each well in total 48 wells in columns 3-10 and rows B-G. This plating arrangement provided 6-replicates per column for each experimental condition. Plate was then centrifuged at 500 rpm for 2 min to ensure better distribution of cells across the well. For background medium controls, equal volume (50-75 μl) of dilution medium were added to wells B2, C2, D2.
For minimizing cells/medium drying in sample wells, 150 μl of 1×DPBS was added to each well of the 45 wells surrounding the sample and control wells. Plate was then incubated in a 37° C. 5% CO2 incubator for at least 4 hours before addition of new reagent.
Compounds were diluted from 20 mM stocks in DMSO with RPMI1640 medium containing 15% FBS. RPMI1640 medium containing 15% FBS and corresponding volume of DMSO was used as controls.
4 HNE (64 mM in 100% ethanol) was diluted to desired concentrations with RPMI1640 base medium.
AlamarBlue was added to each well to final 9.1 or 10% of the total volume in each well. Plate was further incubated in the 37° C. 5% CO2 incubator. The alamarBlue assay is designed to measure quantitatively the proliferation of human and animal cell lines in culture versus incubation time period.
Plate was removed from the CO2 incubator at a pre-designated time and placed in the microplate reader. The fluorescence level in each well was monitored at Ex 554 nm and Em 590 nm. Afterwards the numeric numbers/units were used for data analyses.
Fluorescence units in all wells were acquired by the microplate reader at each time point. Data were then exported to scientist's computer equipped with SoftMax ProS software. The average of Background units (Blk, 3×) and the average of each sample set (6 replicates) were determined. For data collected at each time point (cell culture incubation period), the average of Blk units were subtracted from the average of each set of the Sample units. These “net fluorescence unit” data were then presented in a plot consisted of different culture incubation time periods (the x-axis) versus the corresponding net fluorescence units (y-axis).
The “net fluorescence units” of each sample set were also compared to those of the “control” at each time point. “Control fluorescence units” were considered to be 100% at all the time points. Each set of “net fluorescence units” were divided by the “Control fluorescent units” and multiplied by 100 to obtain corresponding percentages. These “relative percentage” data were then presented in a plot consisted of time points (the x-axis) versus the corresponding relative percentages to control of 100 (y-axis).
The inhibitory effect of 4 HNE on the proliferation of FANCA lymphocytes was examined. 4000 cells in 75 μl of RPMI1640 medium containing 15% FBS were plated onto each sample well in a 96-well poly D-lysine coated black/clear cell culture plate and the plate was incubated in a 37° C. 5% CO2 incubator for 7 hours.
Stock of 4 HNE at 64 mM was diluted with RPMI1640 medium to 10 μM, 20 μM, 30 μM, 40 μM, 60 μM, 80 μM, and 120 μM. […]

COc1ccc(CNC(=O)c2cc(-c3ncccc3CO)ccc2OCC2CC2)cc1F [AC6]
duration of cell-protective / cell growth promoting effect in FANCA cells: at least 48 hours
relative cell proliferation versus control without AC compounds (3.5 μM 4 HNE, 5 μM and 10 μM AC6, 10 μM AC32, 25 hours to 48 hours after 4 HNE treatment): higher levels of cell growth than “control”; also recorded: more efficient growth than control
cell proliferation rate (10 μM AC6, 6 μM 4 HNE, between 25 and 48 hours after 4 HNE treatment): an increase in the cell proliferation rate
FANCA-deficiency lymphocyte cell growth versus 4 HNE only or 2 μM ALDH2 activators (10 μM compound, pretreatment 2 hours before 6 μM 4 HNE challenge): higher levels of cell growth
FANCA-deficiency lymphocyte cell growth versus 4 HNE only (pretreatment 2 hours before 3.5 μM 4 HNE challenge, 2 to 10 μM compound): higher levels of cell growth; also recorded: higher efficacy than AC32
